Reference: patent US20220389377A1, “TREATMENT OF MEDICAL CONDITIONS BY STEM CELL TRANSPLANTS AND STEM CELL ACTIVATION” (Vitro Biopharma, Inc., priority 2021, published 2022)
Like-named read-outs stand apart in the source and are kept apart here.

What was measured:
human MSCs [1] = assay: cells; conditions: for effect on MSC migration induced by curcumin and quercetin / effect on MSC migration induced by curcumin and resveratrol: 20 μM AMD3100 or 15 μM GM6001; for effect on MSC migration induced by Li-VPA: both AMD 3100 and GM6001 present; for EC50: Homo sapiens
Procedure: (§1) FIG. 1 is a microphotograph depicting cell migration using fluorescent readout and cell tracker green as a fluorescent marker of human UC-MSCs. […] The EC50 was determined as a measure of effectiveness of activating agents. […] An initial analysis of the cell free zone using Image J software was used to screen concentrations of activating agents for dose-response determination in further experiments.
(§2) The cell migration assays described above were set up as follows: One million cells/cell line were resuspended in 10 mL MSC-Gro™ serum free, quiescent medium (Vitro Biopharma Cat. No. SCO0B17) containing 5 μg/mL mitomycin C (Sigma, Cat. No. M4287) to inhibit proliferation and incubated for 2 hours at room temperature with end-to-end agitation at 7 RPM.
In some experiments, curcumin was used at 1 μM to block proliferation. Cells were centrifuged (450×g) for 7 minutes, washed with PBS and then resuspended in 1 mL MSC-Gro™ low serum, complete medium (Vitro Biopharma Cat. No. SCO0B1) and plated at 25,000 cells/well in black 96 well, TC-coated cell culture plates (ThermoScientific, Cat. No. 165305) containing cell seed-stoppers (Platypus, Cat. No. CMAUFL4) to form a cell free zone at the center of the well and incubated in 5% CO2, 1% O2, 94% N2 at 37° C. in a humidified chamber for 24 hrs. Plates used for culture of NSCs were first treated with 10 μg/mL fibronectin (Sigma, Cat. No. F0556) for 2 hours at 37° C. Following washout with PBS (3×), cell seed stoppers were inserted, NSCs were plated at 25,000/well and incubated in 5% CO2, 1% O2, 94% N2 at 37° C. in a humidified chamber for 48 hrs.
For studies of the effects of CXCR4 and MMP-9 inhibition following 24 hours of cell culture, appropriate wells were dosed with 15 μM GM6001 and 20 μM AMD3100 for 6 hours. Cells were washed once with PBS then incubated in serum free, MSC-Gro™ (Vitro Biopharma Cat. No. SCO0B17) containing 5 μM Cell Tracker Green CIVIFDA (Molecular Probes, Cat. No. C7025) at 37° C. for 30 minutes. The wells were then washed with serum free, MSC-Gro™ (Vitro Biopharma Cat. No. SCO0B17) and incubated for 30 minutes at 37° C. Cells were washed once with PBS and this was replaced with MSC-Gro™ serum free, quiescent medium (Vitro Biopharma Cat. No. SCO0B17) containing different concentrations of activating agents. […] A TopSeal (PerkinElmer, Cat. No. 6050195) covered the plate for live-cell imaging in a BioTek Cytation3 imaging reader. Kinetic data was acquired every 2 hrs for 24 hrs using a GFP filter and bright field data acquisition. The gas phase throughout the acquisition of kinetic data was 5% O2, 5% CO2 with the balance nitrogen maintained by a BioTek CO2/O2 gas controller. Images were saved as TIFF files to calculate percent closure using imaging data.

human MSCs [2] = assay: Gene expression analysis by qPCR in human MSCs; format: cell-based; conditions: for expression levels of FGF-21, CXCR4 and Hsp70 / expression of Oct 3/4 / expression of SIRT-1: 250 μM VPA, 500 nM curcumin, FIG. 13
Procedure: Beta actin was measured as a house-keeping gene. […] Gene expression was quantified by determining the amount of gene-specific DNA/total cDNA. Data is mean+/−SD of 4 replicates.
Native human umbilical cord-derived MSCs (Vitro Biopharma Cat. No. SC00A1) were expanded from cryopreservation in T-25 TC-coated flasks (BD Falcon, Cat. No. 353108) in MSC-Gro™ low serum, complete medium (Vitro Biopharma Cat. No. SCO0B1). Cells were sub-cultured and counted on a Beckerman-Coulter Z2 particle counter (range 10 μm-30 μm). Cells were plated at 10,000/cm^2 a TC-coated Greiner Bio-One T75 flask and maintained in MSC-Gro™ serum free, complete medium (Vitro Biopharma Cat. No. SCO0B3) in a reduced O2 environment (1% O2, 5% CO2, 94% N2) at 37° C. in a humidified chamber. The MSCs were treated continuously for up to 2 weeks. Cultures were fed every 3 days. Cells were harvested using Accutase (Innovative Cell Technologies Inc., Cat No AT-104) and centrifuged (450×g) for 7 minutes. Cell supernatant was aspirated off and cells were resuspended in 1 mL PBS and counted on a Beckerman-Coulter Z2 particle counter (range 10 μm-30 μm). Total RNA was extracted using RNeasy mini kit (Qiagen Cat. No. 74104). RNA was quantified using an absorbance measurement at 260 nm. RNA was converted to cDNA using Quantitect reverse transcription kit (Qiagen Cat. No. 205310) in a thermocycler. RNA was incubated in the gDNA elimination reaction for 2 minutes at 42° C. then incubated in the reverse-transcription master mix for 15 minutes at 42° C. Immediately after, it was incubated at 95° C. for 3 minutes for inactivation. cDNA was sent to an outside lab (CU-Anschutz Metabolic Laboratory) for q-PCR to detect relative or absolute gene expression levels. cDNA was diluted 1:5 and an iTaq Universal Supermix fluorescent probe (BioRad Cat. No. 172-5120) used to detect the threshold cycle (Ct) during PCR Dilution factors and cDNA concentrations were calculated into recorded values then normalized to untreated hMSCs (Vitro Biopharma Cat. No. SC00A1).
Gene expression was quantified by determining the amount of gene-specific DNA/total cDNA. Data is mean+/−SD of 4 replicates.
Native human umbilical cord-derived MSCs (Vitro Biopharma Cat. No. SC00A1) were expanded from cryopreservation in T-25 TC-coated flasks (BD Falcon, Cat. No. 353108) in MSC-Gro™ low serum, complete medium (Vitro Biopharma Cat. No. SCO0B1). Cells were sub-cultured and counted on a Beckerman-Coulter Z2 particle counter (range 10 μm-30 μm). Cells were plated at 10,000/cm2 a TC-coated Greiner Bio-One T75 flask and maintained in MSC-Gro™ serum free, complete medium (Vitro Biopharma Cat. No. SCO0B3) in a reduced O2 environment (1% O2, 5% CO2, 94% N2) at 37° C. in a humidified chamber. The MSCs were treated continuously for up to 2 weeks. Cultures were fed every 3 days. Cells were harvested using Accutase (Innovative Cell Technologies Inc., Cat No AT-104) and centrifuged (450×g) for 7 minutes. Cell supernatant was aspirated off and cells were resuspended in 1 mL PBS and counted on a Beckerman-Coulter Z2 particle counter (range 10 μm-30 μm).
Total RNA was extracted using RNeasy Mini Kit (Qiagen Cat. No. 74104). RNA was quantified using an absorbance measurement at 260 nm. RNA was converted to cDNA using Quantitect reverse transcription Kit (Qiagen Cat. No. 205310) in a thermocycler. RNA was incubated in the DNA elimination reaction for 2 minutes at 42° C. then incubated in the reverse-transcription master mix for 15 minutes at 42° C. Immediately after, it was incubated at 95° C. for 3 minutes for inactivation. cDNA was sent to an outside lab (CU-Anschutz Metabolic Laboratory) for q-PCR to detect relative or absolute gene expression levels. cDNA was diluted 1:5 and an iTaq Universal Supermix fluorescent probe (BioRad Cat. No. 172-5120) was used to detect the threshold cycle (Ct) during PCR.

human fibroblast = conditions: read-out: EC50 of human fibroblast migration induced by Substance P (prior study); suspension culture system; Parenti et al. 1996; cited from earlier work
MSCs = assay: Presto Blue proliferation assay, MSCs; format: cell-based; conditions: Homo sapiens
Procedure: (§3) Example 5: Effects of lithium and VPA on stem cell proliferation: The effects of lithium and VPA on stem cell proliferation were then investigated using an assay based on Presto Blue, a fluorescent marker of cellular reduction. FIG. 8 is a line graph representation illustrating proliferation of different cell lines induced by increasing concentrations of FGF-b (FGF-2) after a 5 day exposure. Relative fluorescent units were measured using a FITC filter on a Modulus microplate reader and plotted as a function of FGF-2. The data was modeled by sigmoidal curve fitting to calculate EC50 values. […] Proliferation of these mesenchymal cells was stimulated by recombinant human FGF-2 with EC50 values in the range of 3 to 6 ng/ml with maximal proliferative responses at about 10 ng/ml.
The proliferative effects of lithium and VPA were compared, either alone or in combination to MSC proliferation. The results are shown in FIG. 9, which is a line graph representation illustrating proliferation of MSCs induced by lithium, VPA and VPA in 200 μM lithium after a 5 day exposure. Relative fluorescent units were measured using a FITC filter on a Modulus microplate reader and plotted as a function of FGF-2. The data was modeled by sigmoidal curve fitting to calculate EC50 values.

NSCs = assay: Presto Blue proliferation assay, NSCs; format: cell-based; conditions: Homo sapiens, 120 h, read-out: EC50 of VPA for NSC proliferation in 200 μM lithium, 5 day exposure, FIG. 10
Procedure: as §3
The proliferative responses of MSCs and NSCs were compared to Li-VPA. The results are shown in FIG. 10, which is a line graph representation illustrating proliferation of MSCs and NSCs as a function of increasing VPA in 200 μM lithium after a 5 day exposure. Relative fluorescent units were measured using a FITC filter on a Modulus microplate reader and plotted as a function of FGF-2. The data was modeled by sigmoidal curve fitting to calculate EC50 values. […] This may reflect intrinsic proliferative capacity. […]

human NSCs = assay: Cell migration assay, human NSCs; format: cell-based; conditions: read-out: EC50 of VPA for NSC migration in 200 μM lithium, increasing VPA in 200 μM lithium, FIG. 6
Procedure: as §1, §2
In some experiments, curcumin was used at 1 μM to block proliferation. […]
For studies of the effects of CXCR4 and MMP-9 inhibition following 24 hours of cell culture, appropriate wells were dosed with 15 μM GM6001 and 20 μM AMD3100 for 6 hours. […] A TopSeal (PerkinElmer, Cat. No. 6050195) covered the plate for live-cell imaging in a BioTek Cytation3 imaging reader. […]

[3] = tested on: CAFs, primary fibroblasts and MSCs; assay: Presto Blue proliferation assay, CAFs, primary fibroblasts and MSCs (FGF-2 validation); format: cell-based, human; conditions: 5 day exposure
Procedure: as §3

[4] = Example 6, 31.25 μM VPA, 200 μM lithium, FIG. 11

Compound: c1cc(CN2CCCNCCNCCCNCC2)ccc1CN1CCCNCCNCCCNCC1 [AMD3100]
- effect on VPA-induced MSC migration (human MSCs [1]; 20 μM AMD3100, CXCR4 inhibitor, FIG. 7): blocked
- effect on MSC migration induced by curcumin and quercetin (human MSCs [1]; FIG. 14): blocked MSC migration
- effect on MSC migration induced by curcumin and resveratrol (human MSCs [1]; FIG. 15): blocked MSC migration
- effect on MSC migration induced by Li-VPA (human MSCs [1]; FIG. 7): blocked

Compound: CNC(=O)[C@H](Cc1c[nH]c2ccccc12)NC(=O)[C@@H](CC(=O)NO)CC(C)C [GM6001]
- effect on lithium-induced MSC migration (human MSCs [1]; 15 μM GM6001, MMP-9 inhibitor, FIG. 7): blocked
- effect on MSC migration induced by curcumin and quercetin (human MSCs [1]; FIG. 14): blocked MSC migration
- effect on MSC migration induced by curcumin and resveratrol (human MSCs [1]; FIG. 15): blocked MSC migration
- effect on MSC migration induced by Li-VPA (human MSCs [1]; FIG. 7): blocked

Compound: CCCC(=O)[O-].[Na+] [Na butyrate]
- expression levels of FGF-21, CXCR4 and Hsp70 (human MSCs [2]; Example 8): lower levels
- expression of Oct 3/4 (human MSCs [2]; Example 8): less expression activation
- expression of SIRT-1 (human MSCs [2]; Example 8): significantly less effective

Compound: CSCC[C@H](NC(=O)[C@H](CC(C)C)NC(=O)CNC(=O)[C@H](Cc1ccccc1)NC(=O)[C@H](Cc1ccccc1)NC(=O)[C@H](CCC(N)=O)NC(=O)[C@H](CCC(N)=O)NC(=O)[C@@H]1CCCN1C(=O)[C@H](CCCCN)NC(=O)[C@@H]1CCCN1C(=O)[C@@H](N)CCCNC(=N)N)C(N)=O [Substance P]
- MSC migration into cell-free center of the well (human MSCs [1]; 3.7 nM Substance P, 24 hours): induced MSC migration into the cell-free center of the well
- MSC migration (percent closure) dose-response (human MSCs [1]; Substance P from 0 to 18.5 nM, 24-hour live cell analysis): migration increased in a dose-dependent manner
- EC50 (human fibroblast): 0.0022 µM

Compound: CC(/C=C/C(=O)NO)=C\[C@@H](C)C(=O)c1ccc(N(C)C)cc1 [TSA]
- expression levels of FGF-21, CXCR4 and Hsp70 (human MSCs [2]; Example 8): lower levels
- expression of Oct 3/4 (human MSCs [2]; Example 8): less expression activation
- expression of SIRT-1 (human MSCs [2]; Example 8): significantly less effective

Compound: CCCC(CCC)C(=O)O [VPA, valproic acid]
- expression of Oct 3/4 compared to untreated human MSCs (human MSCs [2]; [4]): about 20 fold
- expression of SIRT-1 compared to untreated MSC (human MSCs [2]; [4]): ~300 fold
- expression of Oct 3/4 (human MSCs [2]; Example 8): about 20 fold
- expression of SIRT-1 (human MSCs [2]; Example 8): ~300 fold
- EC50 (human MSCs [1]; read-out: EC50 of MSC migration, agent alone, percent closure, sigmoidal curve fit, FIG. 5): 38.5 µM
- EC50 (human MSCs [1]; read-out: EC50 of VPA for MSC migration in 200 μM lithium, increasing VPA in 200 μM lithium): 33 µM
- concentration of maximal migration / maximum closure (human MSCs [1]; agent alone, FIG. 5): 100 µM
- EC50 (MSCs; 200 μM lithium, MSCs and NSCs, proliferation and migration, read-out: VPA concentration 50% effective in inducing cell proliferation and migration (mean)): 37 µM
- EC50 (MSCs; 200 μM lithium, MSCs and NSCs, proliferation and migration, read-out: VPA concentration 50% effective in inducing cell proliferation and migration (range)): 35 to 39 µM
- EC50 (MSCs; 120 h, 5 day exposure, FIG. 9, read-out: EC50 of MSC proliferation, agent alone): 47.7 µM
- EC50 (MSCs; 120 h, read-out: EC50 of VPA for MSC proliferation in 200 μM lithium, 5 day exposure, 200 μM lithium): 63.3 µM
- EC50 (NSCs): 36.8 µM
- EC50 (human NSCs): 35.2 µM

Compound: COc1cc(/C=C/C(=O)CC(=O)/C=C/c2ccc(O)c(OC)c2)ccc1O [curcumin]
- expression of Oct 3/4, SIRT-1, FGF21, CXCR4 and Hsp70 as compared to VPA (human MSCs [2]; Example 8, 500 nM curcumin vs 250 μM VPA): equivalent or increased expression
- expression of Oct 3/4 (human MSCs [2]; Example 8): about 20 fold
- expression of SIRT-1 (human MSCs [2]; Example 8): ~300 fold
- EC50 (human MSCs [1]; 36 h, read-out: apparent EC50 of curcumin-induced migration, MSCs, percent closure after 36-hour run): 0.25 µM
- concentration at which curcumin induced migration (human MSCs [1]; human MSCs, 36-hour run): less than 1 μM
- estimated LD50 (apparent toxicity, reduced cell number) (human MSCs [1]; human, 36 h): 3 µM

Compound: O=c1c(O)c(-c2ccc(O)c(O)c2)oc2cc(O)cc(O)c12 [quercetin]
- EC50 (human MSCs [1]; read-out: EC50 of quercetin for MSC migration in 500 nM curcumin, 500 nM curcumin, FIG. 14): 0.317 µM

Compound: Oc1ccc(C=Cc2cc(O)cc(O)c2)cc1 [resveratrol]
- EC50 (human MSCs [1]; read-out: EC50 of resveratrol for MSC migration in 500 nM curcumin, 500 nM curcumin, FIG. 15): 0.253 µM

Compound: CCCCC(=O)O [valeric acid]
- expression levels of FGF-21, CXCR4 and Hsp70 (human MSCs [2]; Example 8): lower levels
- expression of Oct 3/4 (human MSCs [2]; Example 8): less expression activation
- expression of SIRT-1 (human MSCs [2]; Example 8): significantly less effective

Compound: FGF-2: recombinant human FGF-2, member of the family of fibroblast growth factors
- concentration of maximal proliferative responses [3]: about 10 ng/ml
